Like-named read-outs stand apart in the source and are kept apart here. Peptide text beside a SMILES is read from it.

The text below walks through data of article PMC8729767, “Specific Strains of Honeybee Gut Lactobacillus Stimulate Host Immune System to Protect against Pathogenic Hafnia alvei” (Microbiology Spectrum, 2022).

For data set [1], the system named is honeybees exposed to H. alvei. Briefly: H. alvei infection survival assay. It counts as in vivo, Apis mellifera. To be noted: adult worker bees fed 450 μg/ml tetracycline in sucrose syrup, then orally exposed to H. alvei SMH01 for 24 h; N = 30 bees per group; Mantel-Cox test, P < 0.05. How it is done: Using in vivo virulence assays, we first explored whether H. alvei is pathogenic to adult honeybees. One H. alvei strain SMH01 was isolated from the worker bee gut. Then we investigated if the strain contributes to increased mortality of bees with normal or disturbed gut microbiota. Adult worker bees were collected from a brood frame in the hive and were treated with or without tetracycline. After introduction in the lab, groups of bees were fed filter-sterilized sucrose syrup (controls) or tetracycline suspended in the diet (Tet) for 5 days (Fig. 1A). Then we challenged bees with H. alvei SMH01. Bees were orally exposed to H. alvei in their food for 24 h. […] To confirm the pathogenicity of H. alvei to honeybees, we performed histology of honeybee guts exposed to H. alvei. […] Damaged tissue presented barely preserved mucosal architecture of the rectum in H. alvei-infected bees (Fig. 1C and D).
Approximately 200 adult worker bees were collected from brood frame from the hive kept at Miyun County, Beijing (March 2019). The bees were immobilized at 4°C and were divided into two cohorts (control and tetracycline treatment) distributed to cup cages as previously described ([11]). The cup cages were maintained in an incubator at 35°C, with humidity of 50%. Each cohort has five replicating cup cages containing ∼20 bees in each cup. […]

The subject of data set [2] is H. alvei. The format is cell-based, Hafnia alvei. How it is done: To verify the inhibitory effect of AMPs secreted by honeybees on H. alvei, we performed an in vitro AMP resistance assay (Table S2 in the supplemental material). A. mellifera expresses two dominant apidaecin isoforms (Ia, Ib) at a ratio of approximately 1 : 20 ([31]). […] However, low concentration (8–16 μg/ml) of apidaecin-1a and 1b inhibited the growth of H. alvei, and the pathogen was slightly more resistant to apidaecin Ia than to Ib.
To test the activity of AMPs against H. alvei, growth inhibition assays in liquid media were performed using 50% diluted HIA media. AMPs synthesized by GL Biochem and Sangon Biotech were serially diluted in 96-well plates to obtain concentrations of 0.5 to 512 µg/ml. Overnight grown H. alvei cultures from HIA media were diluted to 1 × 10^6 CFU/ml in 50% Heart Infusion Broth. Optical density was recorded after 24 h of incubation at 35°C, 5% CO2.

[3] abbreviates: H. alvei 1 × 10^6 CFU/ml in 50% Heart Infusion Broth, optical density after 24 h at 35°C, 5% CO2.

Turning to `CN(C)[C@@H]1C(O)=C(C(N)=O)C(=O)[C@@]2(O)C(O)=C3C(=O)c4c(O)cccc4[C@@](C)(O)[C@H]3C[C@@H]12` [Tetracycline, tetracycline], in data set [1], the “survivorship of honeybees after exposure to H. alvei” value was “reduced survivorship”.
For the molecule `CC[C@H](C)[C@H](NC(=O)[C@H](CCCCN)NC(=O)[C@@H]1CCCN1C(=O)[C@H](CC(N)=O)NC(=O)[C@H](Cc1ccccc1)NC(=O)[C@@H]1CCCN1C(=O)CNC(=O)[C@H](CCC(N)=O)NC(=O)CNC(=O)[C@@H]1CCCN1C(=O)[C@H](Cc1ccccc1)NC(=O)[C@@H](NC(=O)[C@@H]1CCCN1C(=O)[C@H](Cc1ccccc1)NC(=O)[C@@H]1CCCN1C(=O)[C@H](CCCNC(=N)N)NC(=O)[C@H](CCCNC(=N)N)NC(=O)CNC(=O)[C@@H]1CCCN1C(=O)[C@H](CCC(N)=O)NC(=O)[C@@H]1CCCN1C(=O)[C@@H](NC(=O)[C@H](CC(N)=O)NC(=O)[C@@H]1CCCN1C(=O)[C@H](CC(C)C)NC(=O)[C@@H]1CCCN1C(=O)[C@@H](NC(=O)[C@@H](N)Cc1ccc(O)cc1)C(C)C)[C@@H](C)CC)[C@@H](C)O)C(=O)N[C@@H](CCCCN)C(=O)N[C@@H](Cc1c[nH]c2ccccc12)C(=O)N1CCC[C@H]1C(=O)N[C@@H](CCC(N)=O)C(=O)NCC(=O)N[C@@H](Cc1ccc(O)cc1)C(=O)O` [abaecin] (H-YVPLPNIPQPGRRPFPTFPGQGPFNPKIKWPQGY-OH; N-terminus and C-terminus assumed), in data set [2] (24 h), the MIC was over 512 µg/mL.
For apidaecin-1a, in data set [2] (setting [3]), the “low concentration that inhibited the growth of H. alvei” value is 8 to 16 µg/mL.
Regarding apidaecin-1b, in data set [2] (setting [3]), the “low concentration that inhibited the growth of H. alvei” value was 8 to 16 µg/mL. Moreover, the “concentration with a profound inhibition on the growth of H. alvei” value in data set [2] (in vitro growth inhibition, 24 h, 35°C, 5% CO2) was at least 4 µg/mL.
hymenoptaecin yielded an MIC in data set [2] (H. alvei 1 × 10^6 CFU/ml in 50% Heart Infusion Broth, AMPs serially diluted 0.5 to 512 µg/ml in 96-well plates, optical density after 24 h at 35°C, 5% CO2) of over 512 µg/mL.

In general, MIC refers to the smallest concentration in the dilution series that meets the test's criterion for growth inhibition. The low end stands for a more susceptible organism, the high end for a less susceptible organism.
